Results as given in US8367873B2, “Phenyl-substituted bicyclooctane-1,3-dione derivatives” (Bayer Cropscience AG, priority 2008, dated 2013).

Tests used:
Format in all cases: in vivo
[1] = tested on: monocotylidonous and dicotylidonous weed and crop plants; assay: Herbicidal pre-emergence action (other test plants); settings: pre-emergence method, 80 g/ha, greenhouse, visual assessment vs untreated controls
Method in brief: (§1)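 Test compounds, as wettable powder suspensions with 0.2% wetting agent at a water rate of 600 l/ha, were applied in different amounts to the covering soil over freshly sown seeds in sandy loam. Emergence damage was rated visually in percent against untreated plants after three weeks under greenhouse conditions.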

Setaria viridis [2] = assay: Herbicidal pre-emergence action; settings: pre-emergence method, 80 g/ha, greenhouse, visual assessment vs untreated controls
Method in brief: as §1

Lolium multiflorum [3] = assay: Herbicidal pre-emergence action; settings: pre-emergence method, 80 g/ha, greenhouse, visual assessment vs untreated controls
Method in brief: as §1

Echinocloa crus-galli [4] = assay: Herbicidal pre-emergence action; settings: pre-emergence method, 80 g/ha, greenhouse, visual assessment vs untreated controls
Method in brief: as §1

Alopecurus myosuroides [5] = assay: Herbicidal pre-emergence action; settings: pre-emergence method, 80 g/ha, greenhouse, visual assessment vs untreated controls
Method in brief: as §1

Setaria viridis [6] = assay: Herbicidal post-emergence action; settings: post-emergence method, 80 g/ha
Method in brief: (§2)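 Greenhouse plants in sandy loam sprayed at the one-leaf stage, 2-3 weeks after sowing, with WP-formulated compound at varied rates in 600 l/ha water plus 0.2% wetting agent. Damage scored visually after about three weeks as percent effect versus untreated controls (100% = dead).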

Lolium multiflorum [7] = assay: Herbicidal post-emergence action; settings: post-emergence method, 80 g/ha
Method in brief: as §2

Echinocloa crus-galli [8] = assay: Herbicidal post-emergence action; settings: post-emergence method, 80 g/ha
Method in brief: as §2

Alopecurus myosuroides [9] = assay: Herbicidal post-emergence action; settings: post-emergence method, 80 g/ha
Method in brief: as §2

[10] = tested on: monocotylidonous and dicotylidonous weed and crop plants; assay: Herbicidal post-emergence action (other test plants); settings: post-emergence method, 80 g/ha
Method in brief: as §2

Structure (SMILES)	herbicidal effect AVEFA [1] [%]	herbicidal effect SETVI (Setaria viridis [2]) [%]	herbicidal effect LOLMU (Lolium multiflorum [3]) [%]	herbicidal effect ECHCG (Echinocloa crus-galli [4]) [%]	herbicidal effect ALOMY (Alopecurus myosuroides [5]) [%]	herbicidal effect against SETVI (Setaria viridis) (Setaria viridis [6]) [%]	herbicidal effect against LOLMU (Lolium multiflorum) (Lolium multiflorum [7]) [%]	herbicidal effect against ECHCG (Echinochloa crus-galli) (Echinocloa crus-galli [8]) [%]	herbicidal effect against ALOMY (Alopecurus myosuroides) (Alopecurus myosuroides [9]) [%]	herbicidal effect against AVEFA (Avena fatua) [10] [%]
CCc1cc(C)cc(CC)c1C1=C(OC(=O)OC)C2CC3(CC2C1=O)OCCS3 (mixture of isomers) [I-c-31]	80	60	0	60	90	90	100	100	70	90
CCc1cc(C)cc(CC)c1C1=C(OC(C)=O)C2CC3(CC2C1=O)OCCO3 (centres unmarked) [I-b-18]	70	70	100	80	100	100	100	100	100	100
CCOC(=O)OC1=C(c2c(C)cc(C)cc2OC)C(=O)C2CC3(CC12)OCCCO3 (racemic) [I-c-63]	70	50	100	50	80	100	100	100	100	100
CCOC(=O)OC1=C(c2c(C)cc(C)cc2CC)C(=O)C2CC3(CC12)OCC=CCO3 (racemic) [I-c-72]	50	80	100	100	60	100	100	100	100	70
CCc1cc(C)cc(CC)c1C1=C(OC(=O)OC(C)C)C2CC3(CC2C1=O)OCCS3 (mixture of isomers) [I-c-33]	90	60	100	90	90	80	90	100	80	90
CCOC(=O)OC1=C(c2c(CC)cc(C)cc2CC)C(=O)C2CC3(CC12)OCC(OCC)CO3 (centres unmarked) [I-c-26]	80	100	100	100	100	100	100	100	100	100
CCc1cc(C)cc(CC)c1C1=C(OC(=O)C(C)(C)CCl)C2CC3(CC2C1=O)OCCCO3 (centres unmarked) [I-b-25]	70	60	100	100	90	100	100	100	100	100
CCOC(=O)OC1=C(c2c(C)cc(C)cc2C)C(=O)C2CC3(COC(C)(C)O3)CC12 (mixture of isomers) [I-c-54]	40	0	90	0	90	40	80	90	90	0
CCc1cc(C)cc(CC)c1C1=C(OC(=O)C(C)C)C2CC3(CC2C1=O)OCC(OCc1ccccc1)CO3 (centres unmarked) [I-b-17]	80	90	100	100	90	90	100	100	90	90
COc1cc(C)cc(C)c1C1=C([O-])C2CC3(CC2C1=O)OCCCCO3.[Na+] (centres unmarked) [I-f-5]	70	90	90	70	90	100	100	100	100	100
CCc1cc(C)cc(C)c1C1=C(OC(=O)C(C)C)C2CC3(COC(C)(C)O3)CC2C1=O (centres unmarked) [I-b-69]	80	80	100	100	100	60	100	100	90	10
CCOC(=O)OC1=C(c2c(C)cc(C)cc2OC)C(=O)C2CC3(CC12)OCCCCO3 (racemic) [I-c-66]	70	60	100	100	100	100	100	100	100	100
C=C1CC2C(=O)C(c3c(C)cc(C)cc3OC)=C(O)C2C1 (centres unmarked) [I-a-45]	60	100	80	100	80	80	0	80	0	0
C=C1CC2C(=O)C(c3c(C)cc(C)cc3CC)=C(OC(=O)C(C)C)C2C1 (centres unmarked) [I-b-72]	60	100	100	100	80	90	0	100	0	0
